Here are results for 26 compounds from patent publication US11541057B2, “Thienopyrimidinone NMDA receptor modulators and uses thereof” (Cadent Therapeutics, Inc., priority 2015, dated 2023).

This assay addresses T1, NMDA receptor GRIN1/GRIN2B (NR2B) expressed in HEK293 cells (Homo sapiens, UniProt Q13224).
T1 construct: host or cells: HEK293
In words: Reversal of Ro 25-6981-mediated suppression of the Ca2+ response (fluo-8 fluorescence, FDSS) in HEK293 cells expressing GRIN1 and GRIN2B. It is filed as cell-based. The following applies: % reversal=100*(R−Rneg)/(Rpos−Rneg) of Ro 25-6981 suppression of co-agonist (glutamate/glycine) Ca2+ response, 10 min pre-incubation, compound concentration not given. As to the method: HEK293 cells with constructs conferring stable expression of the GRIN1 gene and tetracycline-inducible expression of the GRIN2B gene (Chantest, Cleveland, Ohio) are grown to ˜75% confluence in tissue culture flasks at 37° C., 5% CO2. NR2B expression is induced by overnight incubation with 0.3-0.4 μg/ml tetracycline in the presence of 2.5 mM ARL-15896 at 37° C., followed by moving to 30° C. for 3-5 hours. Cells are next harvested using TripleExpress™ (Life Technologies, Carlsbad, Calif.) according to the manufacturer's instructions, first removing culture medium, rinsing with Dulbecco's phosphate buffered saline (Ca^2+ and Mg^2+-free), and then adding the TripleExpress™ reagent. Harvested cells are spun down, washed twice in Ca^2+- and Mg^2+-free Hank's Balanced Salt Solution with 20 mM HEPES and 10 mM glucose, pH 7.4 (HHnoCa solution), and counted with viability assessed using Trypan Blue. Cells are loaded with fluo-8 Ca^2+-sensitive dye in HHnoCa solution according to the manufacturer's directions (AAT Bioquest, Sunnyvale, Calif.), incubating at 37° C. for 20 minutes followed by 25 minutes at 22-25° C. After a wash in HHnoCa to remove extracellular dye, cells are resuspended in HHnoCa and plated at […] cells per well in a volume of 25 μl/well in 384 well black-wall, clear bottom plates (Hamamatsu, Middlesex, N.J.). Plates are then centrifuged to create a monolayer in the wells and stored in the dark until used.
Prior to analysis, compound plates are prepared with each compound at 6× the final desired concentration. From stock solutions at 10 mM in 100% DMSO, compounds are spotted in the desired amounts using an ECHO liquid handler (Labcyte, Sunnyvale, Calif.) into wells of a 384-well plate and then diluted with 50 μl of HHnoCa containing 750 nM Ro 25-6981 and 120 μM 5,7-dichlorokynurenic acid (both purchased from Tocris Bioscience (Bristol, England) and maintained as 10 mM stock solutions in 100% DMSO). To insure complete compound dissolution, these plates are then placed in an orbital shaker for at least one hour. Also prepared prior to the assay is a co-agonist plate containing HHnoCa with 240 μM glutamate, 2.4 mM glycine, and 7.2 mM CaCl2, which is 2.4× the desired final concentration of each reagent. Both the compound plate and co-agonist plate are 384-well polypropylene plates from Thermo Fisher Scientific, Waltham, Mass.
The assay is performed by first adding 10 μl solution from each well of the compound plate described above to the cell plate using a CyBiWell liquid handler (Analytik Jena AG, Jena, Germany), followed by 10 minutes pre-incubation in the dark. Cell plates are then loaded onto a Hamamatsu FDSS 6000 plate reader. After a 30-second baseline, 25 μl is added to each well from the co-agonist plate, and the fluorescence signal is recorded for another 2 minutes. FDSS software applies shading and autofluorescence correction, and resultant raw fluorescence measurements are exported in the form of a fluorescence ratio for each well to its own reading at time zero in the experiment. In each plate, negative control wells consist of wells where Ro 25-6981 and 5,7 dichlorokynurenic acid are present and co-agonist is applied in the absence of any added assay compound. Under these conditions, the Ca^2+ response to co-agonist is suppressed. Positive control wells also present in each plate contain 5,7 dichlorokynurenic acid but no Ro 25-6981, so that co-agonist addition results in a large Ca^2+ response. Compounds tested are evaluated on the basis of their ability to reverse the suppression of the Ca^2+ response mediated by Ro 25-6981, which is quantified as % reversal=100*(R−Rneg)/(Rpos−Rneg) where R is the fluorescence ratio for the test compound at the end of the experiment and Rneg and Rpos are the end ratios for the negative and positive controls, respectively. […]

T1 sequence (Q13224 27-1484, other chains not shown): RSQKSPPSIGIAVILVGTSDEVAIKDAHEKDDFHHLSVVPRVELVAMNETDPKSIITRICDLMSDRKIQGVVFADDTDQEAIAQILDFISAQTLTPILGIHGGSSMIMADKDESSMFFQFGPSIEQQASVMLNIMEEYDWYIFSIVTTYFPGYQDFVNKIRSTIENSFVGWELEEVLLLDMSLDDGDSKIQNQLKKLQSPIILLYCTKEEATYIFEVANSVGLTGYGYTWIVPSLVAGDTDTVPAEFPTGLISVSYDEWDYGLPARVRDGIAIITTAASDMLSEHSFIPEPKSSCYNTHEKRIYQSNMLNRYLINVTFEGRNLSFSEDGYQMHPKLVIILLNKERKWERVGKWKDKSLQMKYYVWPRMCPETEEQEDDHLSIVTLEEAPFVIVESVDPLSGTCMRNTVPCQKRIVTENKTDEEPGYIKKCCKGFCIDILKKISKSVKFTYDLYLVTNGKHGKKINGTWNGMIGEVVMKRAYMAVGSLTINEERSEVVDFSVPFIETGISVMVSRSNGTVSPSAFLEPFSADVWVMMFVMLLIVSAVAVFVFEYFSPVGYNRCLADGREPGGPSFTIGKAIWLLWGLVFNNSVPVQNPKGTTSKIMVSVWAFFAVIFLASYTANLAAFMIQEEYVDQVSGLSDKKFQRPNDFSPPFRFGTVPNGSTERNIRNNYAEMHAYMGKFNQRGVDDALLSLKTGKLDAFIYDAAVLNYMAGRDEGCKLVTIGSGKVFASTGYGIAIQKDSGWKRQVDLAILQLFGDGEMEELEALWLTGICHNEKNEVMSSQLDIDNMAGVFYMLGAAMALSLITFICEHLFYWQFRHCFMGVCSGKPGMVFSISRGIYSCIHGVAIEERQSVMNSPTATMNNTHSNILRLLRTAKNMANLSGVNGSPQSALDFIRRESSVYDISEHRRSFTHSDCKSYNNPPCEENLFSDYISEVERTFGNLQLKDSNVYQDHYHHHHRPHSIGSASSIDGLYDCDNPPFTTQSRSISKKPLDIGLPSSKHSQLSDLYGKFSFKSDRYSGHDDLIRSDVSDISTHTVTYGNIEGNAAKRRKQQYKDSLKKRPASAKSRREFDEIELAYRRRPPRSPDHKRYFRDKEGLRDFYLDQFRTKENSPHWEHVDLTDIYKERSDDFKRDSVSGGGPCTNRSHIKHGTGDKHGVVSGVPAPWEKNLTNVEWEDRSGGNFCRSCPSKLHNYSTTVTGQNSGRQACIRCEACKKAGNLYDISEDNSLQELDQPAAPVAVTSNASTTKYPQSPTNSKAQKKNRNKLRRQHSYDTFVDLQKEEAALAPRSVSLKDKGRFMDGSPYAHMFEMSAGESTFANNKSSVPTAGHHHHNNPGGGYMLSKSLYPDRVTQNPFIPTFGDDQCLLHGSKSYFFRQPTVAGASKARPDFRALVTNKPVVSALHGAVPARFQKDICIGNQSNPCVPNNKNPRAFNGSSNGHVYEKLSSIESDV

Turning to `O=C(Nn1cnc2scc(-c3ccc(F)c(Cl)c3)c2c1=O)N1CCCC1` [Example 90], the “Response Recovered (%)” value is listed as 10%.
Regarding `O=C(Cn1cnc2scc(-c3ccc(Cl)cc3)c2c1=O)N1CCC(O)CC1` [Example 1, 5-(4-chlorophenyl)-3-(2-(4-hydroxypiperidin-1-yl)-2-oxoethyl)thieno[2,3-d]pyrimidin-4(3H)-one], the “Response Recovered (%)” value amounted to 0%.
For `O=C(Cn1cnc2scc(-c3ccc(F)cc3)c2c1=O)N1CCCCC1` [Example 24, 5-(4-fluorophenyl)-3-[2-oxo-2-(piperidin-1-yl)ethyl]-3H,4H-thieno[2,3-d]pyrimidin-4-one], the “Response Recovered (%)” value worked out at 4%.
The value for `O=C(On1cnc2scc(-c3ccc(F)c(Cl)c3)c2c1=O)N1CCC(F)C1` (centres unmarked) [Example 88, 5-(3-chloro-4-fluorophenyl)-4-oxo-3H,4H-thieno[2,3-d]pyrimidin-3-yl 3-fluoropyrrolidine-1-carboxylate] was 83%; that for `CN(C)c1ccc(-c2csc3ncn(CC(=O)N4CCCC4)c(=O)c23)cc1` [Example 49, 5-[4-(dimethylamino)phenyl]-3-[2-oxo-2-(pyrrolidin-1-yl)ethyl]-3H,4H-thieno[2,3-d]pyrimidin-4-one] was 0%.
For `O=C(CCn1cnc2scc(-c3ccc(Cl)c(C(F)(F)F)c3)c2c1=O)N1CCCC1` [Example 101, 5-(4-chloro-3-(trifluoromethyl)phenyl)-3-(3-oxo-3-(pyrrolidin-1-yl)propyl)thieno[2,3-d]pyrimidin-4(3H)-one], the “Response Recovered (%)” value is recorded as 6%.
The value for `O=C(Cn1cnc2scc(-c3cnc(Cl)c(C(F)(F)F)c3)c2c1=O)N1CC(F)C(F)C1` (centres unmarked) [Example 71, 5-[6-chloro-5-(trifluoromethyl)pyridin-3-yl]-3-[2-(3,4-difluoropyrrolidin-1-yl)-2-oxoethyl]-3H,4H-thieno[2,3-d]pyrimidin-4-one] was 25%; that for `O=C(Cn1cnc2scc(-c3cncnc3)c2c1=O)N1CCCC1` [Example 40, 3-[2-oxo-2-(pyrrolidin-1-yl)ethyl]-5-(pyrimidin-5-yl)-3H,4H-thieno[2,3-d]pyrimidin-4-one] was 1%.
The same measure for `O=C(Cn1cnc2scc(-c3cccc(Cl)c3Cl)c2c1=O)N1CCCC1` [Example 45, 5-(2,3-dichlorophenyl)-3-[2-oxo-2-(pyrrolidin-1-yl)ethyl]-3H,4H-thieno[2,3-d]pyrimidin-4-one]: 7%.
As for `O=C(Cn1cnc2scc(-c3ccc(Cl)c(Cl)c3)c2c1=O)N1CC[C@H](F)C1` [Example 69, 5-(3,4-dichlorophenyl)-3-{2-[(3S)-3-fluoropyrrolidin-1-yl]-2-oxoethyl}-3H,4H-thieno[2,3-d]pyrimidin-4-one], the “Response Recovered (%)” value came to 94%.
The value for `O=C(Cn1cnc2scc(-c3ccc(F)c(Cl)c3)c2c1=O)N1CCCC1` [Example 30, 5-(3-chloro-4-fluorophenyl)-3-[2-oxo-2-(pyrrolidin-1-yl)ethyl]-3H,4H-thieno└2,3-d┘pyrimidin-4-one] was 41%; that for `O=C(Cn1cnc2scc(-c3cnc(F)c(Cl)c3)c2c1=O)N1CC(F)C(F)C1` (centres unmarked) [Example 73, 5-(5-chloro-6-fluoropyridin-3-yl)-3-[2-(3,4-difluoropyrrolidin-1-yl)-2-oxoethyl]-3H,4H-thieno[2,3-d]pyrimidin-4-one] was 11%.
As to `O=C(Cn1cnc2scc(-c3ccc(Cl)cc3)c2c1=O)N1CCC(O)(c2ccccc2)CC1` [Example 15, 5-(4-chlorophenyl)-3-[2-(4-hydroxy-4-phenylpiperidin-1-yl)-2-oxoethyl]-3H,4H-thieno[2,3-d]pyrimidin-4-one], the “Response Recovered (%)” value is on record as −1%.
The same measure for `O=C(Cn1cnc2scc(-c3ccc(F)c(Cl)c3)c2c1=O)N1CCC(F)C1` (centres unmarked) [Example 58, 5-(3-chloro-4-fluorophenyl)-3-[2-(3-fluoropyrrolidin-1-yl)-2-oxoethyl]-3H,4H-thieno[2,3-d]pyrimidin-4-one]: 65%; for `CCN(CC)C(=O)Cn1cnc2scc(-c3ccc(Cl)cc3)c2c1=O` [Example 13, 2-[5-(4-chlorophenyl)-4-oxo-3H,4H-thieno[2,3-d]pyrimidin-3-yl]-N,N-diethylacetamide]: 5%.
In the case of `O=C(Cn1cnc2scc(-c3ccc(Cl)c(C(F)(F)F)c3)c2c1=O)N1CC[C@@H](F)C1` [Example 64, 5-[4-chloro-3-(trifluoromethyl)phenyl]-3-{2-[(3R)-3-fluoropyrrolidin-1-yl]-2-oxoethyl}-3H,4H-thieno[2,3-d]pyrimidin-4-one], the “Response Recovered (%)” value is 117%.
As for `Cc1nc2scc(-c3ccc(Cl)cc3)c2c(=O)n1CC(=O)N1CCCC1` [Example 98, 5-(4-chlorophenyl)-2-methyl-3-(2-oxo-2-(pyrrolidin-1-yl)ethyl)thieno[2,3-d]pyrimidin-4(3H)-one], the “Response Recovered (%)” value is given as 6%.
The same measure for `O=C(Cn1cnc2scc(-c3cc(C(F)(F)F)cc(C(F)(F)F)c3)c2c1=O)N1CCCC1` [Example 48, 5-[3,5-bis(trifluoromethyl)phenyl]-3-[2-oxo-2-(pyrrolidin-1-yl)ethyl]-3H,4H-thieno[2,3-d]pyrimidin-4-one]: −1%; for `C[C@H]1CCCN1C(=O)Cn1cnc2scc(-c3ccc(Cl)cc3)c2c1=O` [Example 10, 5-(4-chlorophenyl)-3-{2-[(2S)-2-methylpyrrolidin-1-yl]-2-oxoethyl}-3H,4H-thieno[2,3-d]pyrimidin-4-one]: 2%.
In the case of `CC(C(=O)N1CCCC1)n1cnc2scc(-c3ccc(Cl)c(C(F)(F)F)c3)c2c1=O` (centres unmarked) [Example 56, 5-[4-chloro-3-(trifluoromethyl)phenyl]-3-[1-oxo-1-(pyrrolidin-1-yl)propan-2-yl]-3H,4H-thieno[2,3-d]pyrimidin-4-one], the “Response Recovered (%)” value amounted to 0%.
Turning to `O=C(Cn1cnc2scc(-c3cccc(C(F)(F)F)c3)c2c1=O)N1CCCC1` [Example 55, 3-[2-oxo-2-(pyrrolidin-1-yl)ethyl]-5-[3-(trifluoromethyl)phenyl]-3H,4H-thieno[2,3-d]pyrimidin-4-one], the “Response Recovered (%)” value came out at 33%.
Consider `COc1ccc(C(F)(F)F)cc1-c1csc2ncn(CC(=O)N3CCCC3)c(=O)c12` [Example 44, 5-[2-methoxy-5-(trifluoromethyl)phenyl]-3-[2-oxo-2-(pyrrolidin-1-yl)ethyl]-3H,4H-thieno[2,3-d]pyrimidin-4-one], for which the “Response Recovered (%)” value was 4%.
The same measure for `Cn1nccc1-c1csc2ncn(CC(=O)N3CCCC3)c(=O)c12` [Example 33, 5-(1-methyl-1H-pyrazol-5-yl)-3-[2-oxo-2-(pyrrolidin-1-yl)ethyl]-3H,4H-thieno[2,3-d]pyrimidin-4-one]: 1%; for `O=C(Cn1cnc2scc(-c3cnc(Cl)c(Cl)c3)c2c1=O)N1CCC(F)C1` (centres unmarked) [Example 63, 5-(5,6-dichloropyridin-3-yl)-3-[2-(3-fluoropyrrolidin-1-yl)-2-oxoethyl]-3H,4H-thieno[2,3-d]pyrimidin-4-one]: 10%.
`O=C(Cn1cnc2scc(-c3ccc(F)cc3Cl)c2c1=O)N1CCCC1` [Example 53, 5-(2-chloro-4-fluorophenyl)-3-[2-oxo-2-(pyrrolidin-1-yl)ethyl]-3H,4H-thieno└2,3-d┘pyrimidin-4-one]: the “Response Recovered (%)” value was 5%.
The value for `Cc1sc2ncn(CC(=O)N3CCCC3C(F)(F)F)c(=O)c2c1-c1ccc(Cl)cc1` (centres unmarked) [Example 80, 5-(4-chlorophenyl)-6-methyl-3-{2-oxo-2-[2-(trifluoromethyl)pyrrolidin-1-yl]ethyl}-3H,4H-thieno[2,3-d]pyrimidin-4-one] was 10%.
